Data on six compounds can be found in paper PMC11302729, “Repurposing Hsp90 inhibitors as antimicrobials targeting two-component systems identifies compounds leading to loss of bacterial membrane integrity” (Microbiology Spectrum, 2024).

A word on the IC50: it is the concentration that gives 50% inhibition. Higher therefore signals weaker potency.

The subject of series [1] is sheep red blood cells. Briefly: Haemolysis assay. It counts as cell-based. The settings on record: if considered to cause haemolysis to red blood cells. Here is the method:
The hemolysis assay was adapted from the study by Evans et al. ([65]). Briefly, sheep RBC 10% washed pooled cells in PBS (Rockland Immunochemicals, Limerick, PA, USA) were diluted 1:5 to give a final concentration of 2% RBCs in PBS. […] A non-treated control, 1% DMSO (vehicle control), and complete cell lysis control (Triton-X 2%) were included in each assay. After exposure samples were centrifuged at 4°C at 1,000 g for 15 min and 100 µL of supernatant transferred to a clean well in a 96-well, clear, flat-bottom plate (Corning Incorporated). Released hemoglobin was measured by absorption at 540 nm using a Spectramax M5 plate reader. The experiments were performed in quadruplicate. The percentage of hemolysis was calculated as follows:
Hemolysis=A540nm,testcondition−A540nm,DMSOcontrol/A540nm,TritonXControl−A540nm,DMSOcontrol

For series [2], the target named is T1, Hsp90α (Homo sapiens, UniProt P07900).
T1 construct: expression strains containing GST-Hsp90 N(9-236) plasmid (Addgene: 22481); host or cells: E. coli BL21(DE3)
Briefly: Hsp90 fluorescence polarization assay (displacement of FITC-labeled geldanamycin). The settings on record: compound concentration that decreases geldanamycin binding by 50%. Here is the method:
The compounds were tested for inhibition of HK autophosphorylation in vitro. Of the 24 derivatives, 6 inhibited in vitro autophosphorylation of E. coli EnvZ at a concentration of 2 mM. […] Each compound has similar IC50 values for PhoR and EnvZ, indicating good potential for polypharmacology. We discounted the notion that DPP-induced aggregation of HKs was the reason for inhibiting autophosphorylation using native gel protein electrophoresis of HK proteins with and without DPPs (data not shown). We also investigated if the four DPP inhibiting HK autophosphorylation would also bind to Hsp90α in a fluorescence polarization assay. In this assay, inhibitors were tested for their ability to displace FITC-labeled geldanamycin (a well-known Hsp90 inhibitor) from the ATP pocket ([40]). All the compounds tested displaced FITC-labeled geldanamycin with IC50s in the nM range (Table 2).
The Hsp90α […] domain was purified as described by Goode et al. ([57]). E. coli BL21(DE3) expression strains containing GST-Hsp90 N(9-236) plasmid (Addgene: 22481) were grown in 1 L LB media supplemented with 100 µg/mL ampicillin at 25°C and shaking (200 r.p.m.) to OD600 0.5, and protein expression was induced by the addition of 1 mM IPTG, and the culture was grown at 25°C and shaking (200 r.p.m.) overnight. Cells were then pelleted (4,000 g, 4°C), resuspended in 40 mL buffer A2 (50 mM Tris-HCl pH 8.0, 0.5 M NaCl, and 1 mM phenylmethanesulfonyl fluoride), sonicated (4°C, 5 min with pulses of 15 sec at intervals of 1 min), and centrifuged (11,000 g, 4°C, 60 min). Supernatant was passed through a 5-mL Glutathione Sepharose 4B (GE Healthcare) equilibrated with buffer A2 using an AKTA system (GE Healthcare). Column was washed using buffer A2, and a linear gradient of glutathione (0–0.25M) in buffer A2 was applied. Fractions containing Hsp90α were collected, mixed, and concentrated by ultrafiltration.
Competitive binding of inhibitors to Hsp90 was measured by fluorescence polarization assay as previously reported ([58]). Inhibitors were assayed in different concentrations (range 0–1,000 µM) in a Nunc black, low binding 384-well plate (Thermo Scientific). Each reaction was prepared in reaction mix (100 mM Tris-Cl, pH 7.4, 20 mM KCl, 6 mM MgCl2, 2 mM DTT, and 0.1 mg/mL bovine serum albumin) in a final volume of 50 µL containing 350 nM Hsp90 and 100 nM geldanamycin FITC labeled (BPS Bioscience, San Diego, CA, USA) and the inhibitor in the correspondent concentration. Blank control containing no enzyme and no geldanamycin, enzyme-positive control containing no inhibitor, and enzyme-negative control containing no Hsp90 were included. Fluorescence polarization was then measured using Tecan SPARK (Tecan, Grödig, Austria) at wavelengths λex = 485 nm and λem = 530 nm.
(In general: In fluorescence polarisation assays a small probe gives low polarisation when free and higher when bound to something large.)

On to `COc1ccc(-c2[nH]nc(C(F)(F)F)c2-c2ccc(Cl)cc2)c(O)c1` [DPP-6], for which the Haemolysis entry in series [1] is “YES”. Besides, in series [2], the IC50 amounted to 798 nM. For `COc1ccc(-c2[nH]nc(C(F)(F)F)c2-c2ccccc2)c(O)c1` [DPP-2], the Haemolysis result in series [1] is listed as “MILD”. The compound `COc1ccc(-c2c(C(F)(F)F)n[nH]c2-c2ccc(O)cc2O)cc1` [DPP-12] registered an IC50 in series [2] of 574 nM. This lies in the sub-micromolar range. On the same count and under the same terms, next, `Oc1ccc(-c2n[nH]c(C(F)(F)F)c2-c2ccc(Cl)cc2)c(O)c1` [DPP-5]: 496 nM; `COc1ccc(-c2c(C(F)(F)F)n[nH]c2-c2ccc(OC)cc2O)cc1` [DPP-13]: 838 nM. With `CCOc1ccc(-c2[nH]nc(C(F)(F)F)c2-c2ccc(Cl)cc2)c(O)c1` [DPP-7], the Haemolysis entry in series [1] is on record as “YES”.
